For this assay, the system named is P. falciparum 3D7 growth, pLDH absorbance. Nature of the assay: blood-stage malaria parasite growth potency – strain 3D7, dose response (AID 2305).
Turning to `O=C(/C=C/c1ccc(Cl)c(Cl)c1)NCCCCCCN1CCCN(C(=O)Nc2ccc(F)c(F)c2)CC1`, the IC50 – broadly, the point on the concentration scale where inhibition reaches its midpoint – was found to be 1240 nM.

Compound `CCc1[nH]nc(C(=O)NC2CCN(CC3(c4ccc(OC)cc4)CCCCC3)CC2)c1C` came in with a concentration for half-maximal inhibition (IC50) of 890 nM.

Take `CC(C)N1CCN(C(=O)c2ccc(CNCCCN3CCN(c4cccc(Cl)c4Cl)CC3)s2)CC1`: the IC50 turned out to be 720 nM.

As for `O=C(NC1CCCC1)c1cc2c(=O)n3ccccc3nc2nc1NCCc1ccccc1`, the IC50 came to 650 nM.

In turn, `O=S(=O)(Nc1cccc(CCN2CCC(N3CCCCC3)CC2)c1)c1ccc(Oc2ccccc2)cc1` registered a half-inhibitory concentration (IC50) of 770 nM.

`COc1cc(C(F)(F)F)cc2[nH]c(CNCCCNc3nc4ccccc4[nH]3)cc12` displayed an IC50 of 280 nM.

For the compound `CNC(=O)c1cnc(Nc2ccc(N3CCOCC3)cc2)nc1Nc1cccc(OC)c1`, the IC50 came to 760 nM.

For the compound `Cc1c(Cc2ccc(C(C)C)cc2)cnc2nc(N)nc(N)c12`, the IC50 was found to be 300 nM.

`CC(=O)N(Cc1ccccc1-c1cccc(CNCc2ccc3c(c2)OCO3)c1)C1CCN(Cc2ccccc2)CC1`: the concentration for half-maximal inhibition (IC50) is 1050 nM.

On to `O=C(/C=C/c1ccccc1Cl)Nc1ccc(Br)c(OCCN2CCN(CCN3CCCC3)CC2)c1`, for which the IC50 came to 650 nM.

`CN(C)Cc1ccc(-c2cc3ncnc(Nc4ccc(OCc5cccc(F)c5)c(Cl)c4)c3s2)[nH]1` had a half-inhibitory concentration (IC50) of 170 nM.

For the compound `OCCNc1nc(Nc2ccc(Cl)cc2)nc2ccccc12`, the 50% inhibitory concentration (IC50) stood at 710 nM.

The compound `Cc1cccc2[nH]c(-c3ccc(-c4ccc(CNCCCNS(C)(=O)=O)cc4)s3)nc12` yielded an IC50 of 1000 nM.

Compound `COc1ccc2nc(N3CCNCC3)nc(NCCCc3ccccc3)c2c1` displayed an IC50 of 1000 nM.

In turn, `COc1ccc([N+](=O)[O-])cc1N(Cc1ccccc1-c1ccccc1)S(=O)(=O)c1ccc(C(F)(F)F)cc1` yielded a half-inhibitory concentration (IC50) of 780 nM.

The compound `O=C(O[C@H]1CN[C@H](C#Cc2cc3ncnc(Nc4ccc5c(ccn5S(=O)(=O)c5cccs5)c4)c3s2)C1)N1CCOCC1` returned an IC50 of 1100 nM.

`CS(=O)(=O)c1ccc(CCNCc2ccc(-c3ccc(CN(C(=O)c4cccc(C#N)c4)C4CCN(Cc5ccccc5)CC4)cc3)nc2)cc1` returned a half-maximal inhibitory concentration (IC50) of 980 nM.

Compound `CN(C)CCCNCc1ccc(-c2ccc(CNCCOc3ccccc3)cc2)cc1` showed an IC50 of 20 nM.

Turning to `CCc1sc(N2CCN(C)CC2)nc1C(=O)NCCc1ccc(Cl)c(Cl)c1`, the IC50 is 1180 nM.

With `COc1ccc(-c2cccc(NC(=O)c3cccc(C#N)c3)c2)cc1CN1CCCC1`, the half-inhibitory concentration (IC50) is 750 nM.

As to `O=C(O)C[C@H](NC(=O)[C@@H]1CCCN1C(=O)c1cccc(-c2ccc(Cl)c(Cl)c2)c1)C(=O)O`, the IC50 turned out to be 860 nM.

In turn, `CCCCNC(=O)c1[nH]c2c(NC(=O)COc3ccccc3)cccc2c1-c1cccc(NC(=O)C(N)CO)c1` (centres undefined) yielded a concentration for half-maximal inhibition (IC50) of 850 nM.

Regarding `CN(C)c1ccc(CN2CCCCC(NC(=O)c3cc(-c4ccccc4F)cs3)C2)cc1` (centres undefined), the IC50 came to 830 nM.

In turn, `CC(C)(C)CC(C)(C)c1ccc(O)c(C(=O)Nc2ccc([N+](=O)[O-])cc2)c1` came in with an IC50 of 770 nM.

`COc1ccc2ncc(F)c(CCN3[C@@H]4CC[C@H]3CC(NCc3cc5c(cn3)OCS5)C4)c2n1` (some centres undefined) gave a 50% inhibitory concentration (IC50) of 920 nM.

As to `CC(=O)Nc1ccc(C(=O)Nc2cccc(-c3ccc(-c4nc5ccc(C(F)(F)F)cc5[nH]4)cc3)c2)cn1`, the 50% inhibitory concentration (IC50) was found to be 230 nM.

On to `CCN(CC)Cc1cccc(-c2cc3c(-c4ccc(C(=O)O)c(C(C)C)c4)ccnc3[nH]2)c1OC`, for which the concentration for half-maximal inhibition (IC50) is 320 nM.

Consider `O=C(c1cc(C(=O)Nc2ccccc2)c(=O)n(-c2ccccc2)c1)c1cc(Cl)ccc1O`, for which the IC50 stood at 390 nM.

For the compound `Cn1nccc1C(=O)NCCNCc1cccc(-c2ccc(-c3nc4ccccc4[nH]3)cc2)c1`, the IC50 turned out to be 470 nM.

`COc1ccccc1-c1sccc1C(=O)NC1(c2cc(Cl)cc(Cl)c2)CCCC1` came in with an IC50 of 940 nM.

As to `COc1cc2nc(N3CCC(CNC(=O)c4ccc(-c5ccc(C(=O)N(C)C)cc5OCCN(C)C)cc4)CC3)nc(N)c2cc1OC`, the concentration for half-maximal inhibition (IC50) worked out at 840 nM.

Compound `NS(=O)(=O)c1cccc(-c2ccc3nccc(-c4cccc(S(N)(=O)=O)c4)c3c2)c1` yielded a 50% inhibitory concentration (IC50) of 1270 nM.

With `CC(=O)N1N=C(c2ccccc2)Sc2c1nc(-c1ccc(Cl)cc1)n2C(C)=O`, the IC50 is 990 nM.

In the case of `O=C(/C=C/c1ccc(Cl)cc1)NCCCCCN1CCN(C(=O)Nc2ccc(Cl)c(C(F)(F)F)c2)CC1`, the IC50 was found to be 920 nM.

In turn, `CC(C)(C)C(=O)Nc1ccccc1Oc1ccc(Cl)cc1` displayed a half-maximal inhibitory concentration (IC50) of 10 nM.

`O=C(/C=C/c1ccc(Cl)c(Cl)c1)NCCCCCN1CCC(c2c[nH]c3ccc(O)cc23)CC1`: the 50% inhibitory concentration (IC50) came out at 890 nM.

With `CN1CC[C@@H](Oc2cc(C(=O)NCc3ccc(Cl)c(Cl)c3)ccc2C(F)(F)F)C1`, the half-maximal inhibitory concentration (IC50) was determined as 1250 nM.

`Cn1c(-c2ccccc2)cc2c3c(=O)cc(C(F)(F)F)[nH]c3ccc21` displayed an IC50 of 850 nM.

For `O=C(N[C@H]1CCCC[C@H]1C(=O)O)c1ccccc1`, the IC50 was 780 nM.

Regarding `CN(Cc1cnc2nc(N)nc(N)c2n1)c1ccc(C(=O)NC(CCC(=O)O)C(=O)O)cc1` (centres undefined), the IC50 was found to be 180 nM.

Turning to `CC(=O)Nc1cccc(C(=O)Nc2cccc(-c3ccc(-c4nc5c(C)cccc5[nH]4)cc3)c2)c1`, the IC50 came out at 910 nM.

Regarding `CC(C)c1sc(N2CCN(C)CC2)nc1C(=O)Nc1ccc(F)cc1C(F)(F)F`, the IC50 is 190 nM.

`N=c1c2c(n(Cc3ccc(Cl)cc3Cl)c3c1CCC3)CCCC2` registered a 50% inhibitory concentration (IC50) of 350 nM.

On to `N#Cc1cccc(-c2cnc(N)c(-c3nc4ccc(S(N)(=O)=O)cc4[nH]3)c2)c1`, for which the IC50 worked out at 640 nM.

Consider `COc1ccc(C=NNc2cc(C)nc3ccccc23)c(OC)c1`, for which the IC50 came to 620 nM.

Regarding `N#Cc1ccc(NC(=NC2CCCc3ccccc32)Nc2ccc(-c3ccccc3)cc2)c(O)c1` (centres undefined), the concentration for half-maximal inhibition (IC50) was 780 nM.

`O=C(/C=C/c1ccc(Cl)c(Cl)c1)NCCCCCN1CCC(NC(=O)Nc2ccc(Cl)cc2Cl)CC1` showed an IC50 of 640 nM.

For the compound `Nc1nc2ccc(CN(C=O)c3ccc(C(=O)N[C@@H](CCC(=O)O)C(=O)O)cc3)cc2c(=O)[nH]1`, the IC50 is 180 nM.

As to `O=C(NCCSCc1c(F)cccc1Cl)c1cnc2c(c1)nc(-c1cnc(-c3ccccc3)[nH]1)n2CCc1cnc[nH]1`, the IC50 worked out at 810 nM.

Consider `Cc1[nH]c(C)c(-c2ccc(CCc3ccc(F)cc3F)cc2)c(=O)c1Cl`, for which the IC50 amounted to 20 nM.

The compound `O=C(NC1CCCCN(Cc2ccccc2O)C1)c1ccc(-c2ccccc2)cc1` (centres undefined) gave an IC50 of 760 nM.

As to `Cc1ccccc1-c1nc2c(CN3CCC(O)(c4ccccc4)CC3)c(O)ccc2[nH]1`, the IC50 stood at 870 nM.

The compound `CCN(CC)C(=NCCCCCCCCN=C(/N=C(/N)Nc1ccc(Cl)cc1)N(CC)CC)/N=C(/N)Nc1ccc(Cl)cc1` had an IC50 of 400 nM.

The compound `COc1ccc(NC(=O)Nc2ccc(-c3ccccc3)cc2)cc1Cn1nc(Cl)c(N2CCCNCC2)cc1=O` gave an IC50 of 360 nM.

In the case of `CN(C)S(=O)(=O)c1ccc(Nc2nc(NCCC3C=NC=N3)nc3cc[nH]c(=O)c23)cc1` (centres undefined), the concentration for half-maximal inhibition (IC50) worked out at 930 nM.

The compound `Cc1ccc(NC(=O)c2cccc(CN3CCCN(CC4CCCCC4)CC3)c2)cc1F` gave an IC50 of 600 nM.

Regarding `COc1cccc(-c2[nH]c3ccccc3c2CN2CCC(c3c(C)cccc3C)CC2)c1`, the IC50 worked out at 1020 nM.

`CCC(C)CNC(=O)CN1CN(c2ccccc2)C2(CCN(C(=O)c3ccc(Br)cc3)CC2)C1=O` (centres undefined) returned an IC50 of 1070 nM.

`CCCCc1cc(NC2CCN(C)CC2)nc(Nc2ccccc2)n1` yielded an IC50 of 660 nM.

For `CC(C)(C)C1CCC(CC2=C(C(=O)O)c3ccccc3C2=O)CC1` (centres undefined), the half-maximal inhibitory concentration (IC50) was 1100 nM.

With `Cc1cccc2[nH]c(-c3ccc(-c4ccc(NC(=O)Nc5cccc(C#N)c5)cc4)cc3)nc12`, the IC50 was found to be 110 nM.

`O=C(Cn1c(CCc2cccc(F)c2F)nc(=O)c2ccccc21)N(Cc1ccc(-c2ccc(C(F)(F)F)cc2)cc1)C1CCN(C2CCOCC2)CC1` came in with an IC50 of 740 nM.

Compound `O=[N+]([O-])c1cccc(CNCC2CCN(Cc3ccc(Cl)c(Cl)c3)CC2)c1` had an IC50 of 910 nM.

Compound `O=C(CCc1cccnc1)Nc1cccc(-c2ccc(-c3nc4ccc(C(F)(F)F)cc4[nH]3)cc2)c1` showed an IC50 of 870 nM.

`Cc1cccc2[nH]c(-c3ccc(-c4ccc(NC(=O)N[C@@H]5C[C@H]5c5ccccc5)cc4)cc3)nc12`: the IC50 amounted to 880 nM.

`NC(N)=NN=Cc1ccc2c(c1)Cc1ccccc1-2` gave a concentration for half-maximal inhibition (IC50) of 590 nM.

The compound `Oc1c(Br)cc2oc3c(c2c1CNCc1ccccc1)CCCC3` returned an IC50 of 960 nM.

For `COc1cccc(C2CCN(CCN3CCC(NC(=O)c4ccc(-c5ccc(C(F)(F)F)cc5)cc4)CC3)CC2)c1`, the IC50 was found to be 200 nM.

The compound `CNC(=O)C1Cc2c([nH]c3cc(Br)ccc23)C2(CCN(CCc3ccccc3)CC2)N1` (centres undefined) came in with an IC50 of 720 nM.

As for `COc1cc(NC(=O)/C=C/c2cc(F)cc(F)c2F)cc(OCCN2CCC(O)(c3ccccc3)CC2)c1`, the IC50 was found to be 170 nM.

Consider `O=C(Nc1ccc(Oc2ccccc2)cc1)NC1CCC(CN2CCC(c3c[nH]c4ccccc34)CC2)CC1` (centres undefined), for which the concentration for half-maximal inhibition (IC50) turned out to be 570 nM.

Compound `CCCNCc1ccc(-c2ccc(CN(CCOC)C(=O)CCC(=O)c3ccc(OC)c(F)c3)cc2)nc1` gave an IC50 of 680 nM.

`CCNc1cc(C(=O)N[C@@H](Cc2ccccc2)[C@H](O)CNC(C)(C)CCCC(C)C)cc(N2CCCC2=O)c1` registered an IC50 of 830 nM.

In turn, `CCOc1cc(C(=O)N[C@@H](Cc2ccccc2)[C@H](O)CNCc2cc(OC)cc(OC)c2)cc(N2CCCS2(=O)=O)c1` gave a 50% inhibitory concentration (IC50) of 750 nM.

`CC(C)c1ccc(NC(=O)N[C@H]2CCN(CCCCCNC(=O)/C=C/c3ccc(Cl)c(Cl)c3)C2)cc1` showed an IC50 of 710 nM.

Compound `O=C(c1ccco1)N1CCN(c2ccc([N+](=O)[O-])c(NC3CC3)c2)CC1` came in with an IC50 of 750 nM.

With `Cc1ccc2nc(C)cc(NN=Cc3cccc([N+](=O)[O-])c3)c2c1`, the 50% inhibitory concentration (IC50) came out at 880 nM.

In the case of `c1cncc(CCNCc2ccc(-c3cccc(-c4nc5ccccc5[nH]4)c3)cc2)c1`, the IC50 was 160 nM.

In turn, `CC(C)NCC(O)Cn1c2ccc(Br)cc2c2cc(Br)ccc21` (centres undefined) yielded an IC50 of 450 nM.

As for `COc1ccc(-c2ccc(NC(=O)c3ccc(C#N)cc3)cc2)cc1CN1CCCN(C)CC1`, the IC50 was determined as 150 nM.

In the case of `COc1cc(/C=C/C(=O)NCC(CCNc2cc(=O)c3ccccc3[nH]2)NCc2cc(Br)cc(Br)c2)cc(OC)c1` (centres undefined), the IC50 was 910 nM.

Compound `COc1ccc(Cc2nc(N=C(N)Nc3ccccc3)ccc2OC)cc1` yielded an IC50 of 850 nM.

`CCCCC(=O)Nc1ccc(Nc2nc(C)cc(N3CCCC3)n2)cc1` had an IC50 of 1060 nM.

The compound `CCOc1ccc2nc(C)cc(NN=Cc3cccc(F)c3)c2c1` came in with an IC50 of 740 nM.
